Results published in patent publication US11415579B2, “Assay for measuring a rate of reaction between a target and a ligand candidate” (Imperial College Innovations Ltd., priority 2016, dated 2022).

Tests used:
Cdk2(C177A, F80C) = target: T1, Cdk2(C177A, F80C) (Homo sapiens, UniProt P24941, C177A/F80C); test: Kinetic thiol consumption assay with Cdk2 mutant F80C, incl. kobs versus concentration (Kd, k2); type: binding; parameters: key to Rate enhancement, Cdk2 F80C: Cdk2 rate constant divided by model-thiol rate constant; details: additional mutation C177A; for Rate constant with Cdk2 F80C: Protein: Cdk2, cysteine position F80C, in h^-1
T1 construct: poly-histidine; made in house; host or cells: E. coli
Protocol: Therefore the assay can be used to calculate both k2 and Kd by experimentally determining kobs at a suitable range of ligand candidate concentrations. Typically Kd and k2 would then be determined by fitting a hyperbolic curve to a plot of kobs against ligand candidate concentration (FIG. 9).
(§1) To wells containing 150 μL thiol (Cdk2 or model thiol) (5 μM) in degassed phosphate buffer (pH 8) was added immobilized TCEP beads (2% v/v).
(§2) After incubation of the fluorescence plates for 1 hour at room temperature, fluorescence measurements (excitation/emission of 380/470 nm) were taken on a PerkinElmer EnVision multilabel plate reader and processed with EnVision Workstation version 1.12.
(§3) Fluorescence measurements were normalized against a DMSO/thiol only control and plotted against time.
(§4) Rate constants were calculated using GraphPad software Prism version 6 by fitting a first order exponential decay to the data. The rate constant for each acrylamide with Cdk2 was divided by the rate constant for that fragment with the model thiol to provide the rate enhancement for each ligand candidate.
(§5) A further set of set of additional Cdk2 mutants were screened, all containing the C177A mutation and therefore with only one cysteine on the surface: • F80C (without the K278C mutation) • H71C • S276C • N272 • T182C • R122C • S181C
(§6) Mutations were introduced by site-directed mutagenesis and the resulting cDNA was cloned into the pRSETA bacterial expression vector to generate a poly-histidine tagged Cdk2 fusion that was purified from E. coli using standard techniques.
Rate constants were calculated as described in the methodology section of Examples 1 and 2.

[1] = target: T2, human cyclin-dependent kinase 2 (Cdk2) (Homo sapiens, UniProt P24941); test: Kinetic thiol consumption assay with wild type Cdk2 (C177); type: binding; parameters: key to Rate enhancement, Cdk2 WT: k(Cdk2) divided by k(model thiol); Rate constant with Cdk2 (k(Cdk2)): unit not given here; details: for Rate enhancement, Cdk2 WT: no additional mutations; for Rate constant with Cdk2 WT: Protein: Cdk2, cysteine position WT, in h^-1; for Rate constant with Cdk2 (k(Cdk2)): 500 μM ligand, 5 μM thiol, phosphate buffer pH 8; for k(Cdk2)/k(GSH) rate enhancement: model thiol glutathione
T2 construct: poly-histidine; made in house; host or cells: E. coli
Protocol: (§7) A library of 120 acrylamides was screened against a) human cyclin-dependent kinase 2 (Cdk2, which contains one surface exposed cysteine residue—C177), prepared by cloning cDNA into the pRSETA bacterial expression vector to generate a poly-histidine tagged Cdk2 fusion that was purified from E. coli using standard techniques, and b) a model thiol (specific details are given below). The structures of these 120 acrylamides are set out in Table 1, above.
as §1, §2, §3, §4

Cdk2(S181C) (C177A) = target: T3, Cdk2(S181C) (C177A) (Homo sapiens, UniProt P24941, C177A/S181C); test: Kinetic thiol consumption assay with Cdk2 mutant S181C; type: binding; parameters: key to Rate enhancement, Cdk2 S181C: rate constant with Cdk2 ÷ rate constant with model thiol (fold); details: additional mutation C177A; for Rate constant with Cdk2 S181C: Protein: Cdk2, cysteine position S181C, in h^-1
T3 construct: poly-histidine; made in house; host or cells: E. coli
Protocol: as §1, §2, §3, §4, §5, §6

[2] = Kinetic thiol consumption assay with model thiol glutathione; type: physicochemical; parameters: Rate constant with glutathione (k(GSH)): unit not given here; details: for Rate constant with Glutathione: Protein: Glutathione, cysteine position NA, in h-1; for Rate constant with glutathione (k(GSH)): 500 μM ligand, 5 μM thiol, phosphate buffer pH 8
Protocol: as §7, §1, §2, §3, §4
The model thiol in Example 1 is glutathione (GSH). Hits were defined as fragments where kCdk2/kGSH>5.8 (empirically determined as 3 standard deviations over the mean).

Cdk2(N272C) (C177A) = target: T4, Cdk2(N272C) (C177A) (Homo sapiens, UniProt P24941, C177A/N272C); test: Kinetic thiol consumption assay with Cdk2 mutant N272C; type: binding; parameters: key to Rate enhancement, Cdk2 N272: rate constant with Cdk2 ÷ rate constant with model thiol (fold); details: for Rate enhancement, Cdk2 N272: Cdk2 N272, additional mutation C177A; for Rate constant with Cdk2 N272C: Protein: Cdk2, cysteine position N272C, additional mutation C177A, in h^-1
T4 construct: poly-histidine; made in house; host or cells: E. coli
Protocol: as §1, §2, §3, §4, §5, §6

Cdk2(T182C) (C177A) = target: T5, Cdk2(T182C) (C177A) (Homo sapiens, UniProt P24941, C177A/T182C); test: Kinetic thiol consumption assay with Cdk2 mutant T182C; type: binding; parameters: key to Rate enhancement, Cdk2 T182C: rate constant with Cdk2 ÷ rate constant with model thiol (fold); details: additional mutation C177A; for Rate constant with Cdk2 T182C: Protein: Cdk2, cysteine position T182C, in h^-1
T5 construct: poly-histidine; made in house; host or cells: E. coli
Protocol: as §1, §2, §3, §4, §5, §6

Cdk2(R122C) (C177A) = target: T6, Cdk2(R122C) (C177A) (Homo sapiens, UniProt P24941, C177A/R122C); test: Kinetic thiol consumption assay with Cdk2 mutant R122C; type: binding; parameters: key to Rate enhancement, Cdk2 R122C: rate constant with Cdk2 ÷ rate constant with model thiol (fold); details: additional mutation C177A; for Rate constant with Cdk2 R122C: Protein: Cdk2, cysteine position R122C, in h-1
T6 construct: poly-histidine; made in house; host or cells: E. coli
Protocol: as §1, §2, §3, §4, §5, §6

Cdk2(S276C) (C177A) = target: T7, Cdk2(S276C) (C177A) (Homo sapiens, UniProt P24941, C177A/S276C); test: Kinetic thiol consumption assay with Cdk2 mutant S276C; type: binding; parameters: key to Rate enhancement, Cdk2 S276C: rate constant with Cdk2 ÷ rate constant with model thiol (fold); details: additional mutation C177A; for Rate constant with Cdk2 S276C: Protein: Cdk2, cysteine position S276C, in h^-1
T7 construct: poly-histidine; made in house; host or cells: E. coli
Protocol: as §1, §2, §3, §4, §5, §6

Cdk2(H71C) (C177A) = target: T8, Cdk2(H71C) (C177A) (Homo sapiens, UniProt P24941, C177A/H71C); test: Kinetic thiol consumption assay with Cdk2 mutant H71C; type: binding; parameters: key to Rate enhancement, Cdk2 H71C: rate constant with Cdk2 ÷ rate constant with model thiol (fold); details: additional mutation C177A; for Rate constant with Cdk2 H71C: Protein: Cdk2, cysteine position H71C, in h^-1
T8 construct: poly-histidine; made in house; host or cells: E. coli
Protocol: as §1, §2, §3, §4, §5, §6

Row | Structure (SMILES) | Rate enhancement, Cdk2 F80C (Cdk2(C177A, F80C)) | Rate constant with Cdk2 F80C (Cdk2(C177A, F80C)) | Rate enhancement, Cdk2 WT [1] | Rate constant with Cdk2 WT [1] | Rate enhancement, Cdk2 S181C (Cdk2(S181C) (C177A)) | Rate constant with Cdk2 S181C (Cdk2(S181C) (C177A)) | Rate constant with Glutathione [2] | Rate enhancement, Cdk2 N272 (Cdk2(N272C) (C177A)) | Rate constant with Cdk2 N272C (Cdk2(N272C) (C177A)) | Rate enhancement, Cdk2 T182C (Cdk2(T182C) (C177A)) | Rate constant with Cdk2 T182C (Cdk2(T182C) (C177A)) | Rate enhancement, Cdk2 R122C (Cdk2(R122C) (C177A)) | Rate constant with Cdk2 R122C (Cdk2(R122C) (C177A)) | Rate enhancement, Cdk2 S276C (Cdk2(S276C) (C177A)) | Rate constant with Cdk2 S276C (Cdk2(S276C) (C177A)) | Rate enhancement, Cdk2 H71C (Cdk2(H71C) (C177A)) | Rate constant with Cdk2 H71C (Cdk2(H71C) (C177A)) | Rate constant with Cdk2 (k(Cdk2)) [1] | k(Cdk2)/k(GSH) rate enhancement [1] | Rate constant with glutathione (k(GSH)) [2]
1 | C=CC(=O)N(c1cccc2ncccc12)C1CCC1 [CA-032/228] | 2.232 | 0.03651 | 1.405 | 0.02299 | 1.043 | 0.01707 | 0.01636 | 3.007 | 0.04919 | 14.8 | 0.2422 | 1.534 | 0.02509 | 1.851 | 0.03029 | 15.36 | 0.2513 |  |  | 
2 | C=CC(=O)N1CCn2c(C(=O)NC3CC3)ccc2C1C (stereo not drawn) [CA-040/230] | 0.3102 | 0.0133 | 0.6915 | 0.02965 | 0.247 | 0.01059 | 0.04288 | 3.076 | 0.1319 | 1.268 | 0.05436 | 0.285 | 0.01222 | 0.7654 | 0.03282 | 0.7334 | 0.03145 |  |  | 
3 | C=CC(=O)N(CC(=O)N1CCCC1)CC1CCCO1 (stereo not drawn) [CA-080/239] | 0.08364 | 0.001007 | 0.2317 | 0.00279 | 0.1377 | 0.001658 | 0.01204 | 0.2756 | 0.003318 | 0.9651 | 0.01162 | 0.173 | 0.002083 | 0.2885 | 0.003474 | 0 |  |  |  | 
4 | C=CC(=O)N(CC(=O)N1CCCC1)CC1CCCO1 (stereo not drawn) [CA-080] |  |  |  |  |  |  |  |  |  |  |  |  |  |  |  |  |  | 0.00195 | 0.2764 | 0.00706
5 | C=CC(=O)N(C1CC1)C1CCCCC1C1CCCCC1 (stereo not drawn) [CA-081/240] | 4.621 | 0.0108 | 7.599 | 0.01776 | 9.936 | 0.02322 | 0.002337 | 3.276 | 0.007657 | 8.314 | 0.01943 | 0.7099 | 0.001659 | 7.411 | 0.01732 | 0.9042 | 0.002113 |  |  | 
6 | C=CC(=O)N1CCCC1CC1CC2CCC1C2 (stereo not drawn) [CA-087] | 0.4785 | 0.004048 | 1.059 | 0.00896 | 0.6457 | 0.005463 | 0.00846 | 0.3045 | 0.002576 | 6.465 | 0.05469 | 0.319 | 0.002699 | 0.7322 | 0.006194 | 35.53 | 0.3006 | 0.00508 | 0.9957 | 0.0051
7 | Cn1cc(S(=O)(=O)N2CCOCC2)cc1C(=O)NC(=O)CCl [EN002] | 49.31 | 0.2493 | 1.276 | 0.006451 | 0.2957 | 0.001495 |  | 1.133 | 0.00573 | 2.567 | 0.01298 | 0.1371 | 0.0006932 | 0 |  | 7.5652E−12 | 3.825E−14 |  |  | 
8 | N#Cc1ccncn1 [EN007] | 0.9144 | 0.001332 | 0 |  |  |  |  | 0 | 0.001652 | 0.9515 | 0.001386 |  |  | 0 |  | 0 |  |  |  | 
9 | FC(F)(F)c1cc(Cl)ncc1Br [EN008] | 4.64 | 0.2076 | 0 |  | 0.02434 | 0.001089 |  | 0.2037 | 0.009116 | 0.1321 | 0.005911 | 0 |  | 1.5439E−13 | 6.908E−15 | 0 |  |  |  | 
10 | CN(C#N)Cc1ccccc1 [EN009] | 3.246 | 0.02092 | 0 |  | 0.6302 | 0.004061 |  | 0 |  | 1.07 | 0.006898 | 0.132 | 0.0008504 | 0.921 | 0.005935 | 5.4624E−12 | 3.52E−14 |  |  | 
